In ChEMBL document CHEMBL1201862, “PubChem BioAssay data set” (2004):
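48-hour exposure; five concentrations; linearly interpolated endpoints. GI50 is the concentration that inhibits growth by half.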 Active and inactive are the calls of the source. No stated cut-off is given here; in the data, active = GI50 up to about 1.1 µM and inactive = higher.

Legend:
Assay in all cases: growth of human tumour cells (NCI), 48 h
LXFL 529 = test system: LXFL 529
OVCAR-4 = test system: OVCAR-4
CCRF-CEM = test system: CCRF-CEM
MOLT-4 = test system: MOLT-4
HOP-62 = test system: HOP-62
CAKI-1 = test system: CAKI-1
SF-539 = test system: SF-539
NCI-H23 = test system: NCI-H23
U-251 = test system: U-251
SK-MEL-28 = test system: SK-MEL-28
SNB-78 = test system: SNB-78
IGROV-1 = test system: IGROV-1
COLO 205 = test system: COLO 205
HOP-92 = test system: HOP-92
SF-295 = test system: SF-295
K562 = test system: K562
SNB-75 = test system: SNB-75
NCI-H226 = test system: NCI-H226
786-0 = test system: 786-0
HCT-15 = test system: HCT-15
SR = test system: SR
M14 = test system: M14
UACC-62 = test system: UACC-62
SK-MEL-2 = test system: SK-MEL-2
HCT-116 = test system: HCT-116
HOP-18 = test system: HOP-18
DLD-1 = test system: DLD-1
RPMI-8226 = test system: RPMI-8226
SW-620 = test system: SW-620
KM12 = test system: KM12
ACHN = test system: ACHN
SK-MEL-5 = test system: SK-MEL-5
SF-268 = test system: SF-268
SK-OV-3 = test system: SK-OV-3
HL-60 = test system: HL-60
A549 = test system: A549
SN12C = test system: SN12C
UACC-257 = test system: UACC-257
Malme-3M = test system: Malme-3M
NCI-H522 = test system: NCI-H522
OVCAR-3 = test system: OVCAR-3
UO-31 = test system: UO-31
OVCAR-5 = test system: OVCAR-5
TK-10 = test system: TK-10
RXF 393 = test system: RXF 393
OVCAR-8 = test system: OVCAR-8
M19-MEL = test system: M19-MEL
KM-20L2 = test system: KM-20L2
HT-29 = test system: HT-29
NCI-H460 = test system: NCI-H460
LOX IMVI = test system: LOX IMVI
DMS-273 = test system: DMS-273
SNB-19 = test system: SNB-19
DMS-114 = test system: DMS-114
HCC 2998 = test system: HCC 2998
A498 = test system: A498
EKVX = test system: EKVX

COc1cc(C(C#N)NNC(=O)c2ccccc2O)ccc1O (configuration not stated)
GI50 (LXFL 529): 1.6 µM (inactive)
GI50 (OVCAR-4): 5.33 µM (inactive)
GI50 (CCRF-CEM): 2.08 µM (inactive)
GI50 (MOLT-4): 6.15 µM (inactive)
GI50 (HOP-62): 4.78 µM (inactive)
GI50 (CAKI-1): 5.46 µM (inactive)
GI50 (SF-539): 3 µM (inactive)
GI50 (NCI-H23): 2.07 µM (inactive)
GI50 (U-251): 0.843 µM (active)
GI50 (SK-MEL-28): 30.6 µM (inactive)
GI50 (SNB-78): 3.2 µM (inactive)
GI50 (IGROV-1): 1.54 µM (inactive)
GI50 (COLO 205): 28.6 µM (inactive)
GI50 (HOP-92): 2.98 µM (inactive)
GI50 (SF-295): 3.28 µM (inactive)
GI50 (K562): 0.622 µM (active)
GI50 (SNB-75): 0.356 µM (active)
GI50 (NCI-H226): 2.05 µM (inactive)
GI50 (786-0): 2.7 µM (inactive)
GI50 (HCT-15): 4.06 µM
GI50 (SR): > 100 µM (inactive)
GI50 (M14): 2.79 µM (inactive)
GI50 (UACC-62): 0.887 µM (active)
GI50 (SK-MEL-2): 2.48 µM (inactive)
GI50 (HCT-116): 2.26 µM (inactive)
GI50 (HOP-18): 4.91 µM (inactive)
GI50 (DLD-1): 4.22 µM (inactive)
GI50 (RPMI-8226): 9.64 µM (inactive)
GI50 (SW-620): 8.32 µM (inactive)
GI50 (KM12): 3.85 µM (inactive)
GI50 (ACHN): 0.873 µM (active)
GI50 (SK-MEL-5): 9.95 µM (inactive)
GI50 (SF-268): 0.368 µM (active)
GI50 (SK-OV-3): 3.18 µM (inactive)
GI50 (HL-60): 2.45 µM (inactive)
GI50 (A549): 0.662 µM (active)
GI50 (SN12C): 7.03 µM (inactive)
GI50 (UACC-257): 6.35 µM (inactive)
GI50 (Malme-3M): 9.4 µM (inactive)
GI50 (NCI-H522): 3.14 µM (inactive)
GI50 (OVCAR-3): 3.44 µM (inactive)
GI50 (UO-31): 0.701 µM (active)
GI50 (OVCAR-5): 10.7 µM (inactive)
GI50 (TK-10): 4.11 µM (inactive)
GI50 (RXF 393): 0.349 µM (active)
GI50 (OVCAR-8): 5.83 µM (inactive)
GI50 (M19-MEL): 3.58 µM (inactive)
GI50 (KM-20L2): 29.4 µM (inactive)
GI50 (HT-29): 23.4 µM (inactive)
GI50 (NCI-H460): 1.47 µM (inactive)
GI50 (LOX IMVI): 2.33 µM (inactive)

CCC(=O)N/N=C(\C=C\c1cccc(O)c1)c1sc(Nc2ccc(C)cc2[N+](=O)[O-])nc1C
GI50 (LXFL 529): > 100 µM (inactive)
GI50 (OVCAR-4): 49 µM (inactive)
GI50 (CCRF-CEM): 99.1 µM (inactive)
GI50 (MOLT-4): > 100 µM (inactive)
GI50 (HOP-62): > 100 µM (inactive)
GI50 (CAKI-1): > 100 µM (inactive)
GI50 (SF-539): 32.7 µM (inactive)
GI50 (NCI-H23): 2.22 µM (inactive)
GI50 (DMS-273): > 100 µM (inactive)
GI50 (U-251): > 100 µM (inactive)
GI50 (SNB-19): > 100 µM (inactive)
GI50 (SK-MEL-28): > 100 µM (inactive)
GI50 (SNB-78): > 100 µM (inactive)
GI50 (IGROV-1): > 100 µM (inactive)
GI50 (COLO 205): > 100 µM (inactive)
GI50 (HOP-92): 13.7 µM (inactive)
GI50 (SF-295): 48.4 µM (inactive)
GI50 (K562): > 100 µM (inactive)
GI50 (SNB-75): 14.9 µM (inactive)
GI50 (NCI-H226): > 100 µM (inactive)
GI50 (786-0): > 100 µM (inactive)
GI50 (HCT-15): 81.8 µM
GI50 (SR): 73.8 µM (inactive)
GI50 (M14): > 100 µM (inactive)
GI50 (DMS-114): > 100 µM (inactive)
GI50 (UACC-62): > 100 µM (inactive)
GI50 (SK-MEL-2): > 100 µM (inactive)
GI50 (HCT-116): > 100 µM (inactive)
GI50 (HOP-18): > 100 µM (inactive)
GI50 (DLD-1): 43.6 µM (inactive)
GI50 (RPMI-8226): > 100 µM (inactive)
GI50 (SW-620): > 100 µM (inactive)
GI50 (KM12): > 100 µM (inactive)
GI50 (ACHN): > 100 µM (inactive)
GI50 (SK-MEL-5): > 100 µM (inactive)
GI50 (SF-268): > 100 µM (inactive)
GI50 (SK-OV-3): > 100 µM (inactive)
GI50 (HCC 2998): > 100 µM (inactive)
GI50 (HL-60): 43.4 µM (inactive)
GI50 (A549): > 100 µM (inactive)
GI50 (SN12C): > 100 µM (inactive)
GI50 (UACC-257): > 100 µM (inactive)
GI50 (Malme-3M): > 100 µM (inactive)
GI50 (NCI-H522): 45.8 µM (inactive)
GI50 (OVCAR-3): 71.1 µM (inactive)
GI50 (UO-31): > 100 µM (inactive)
GI50 (OVCAR-5): > 100 µM (inactive)
GI50 (TK-10): > 100 µM (inactive)
GI50 (RXF 393): 10.8 µM (inactive)
GI50 (OVCAR-8): 71.3 µM (inactive)
GI50 (M19-MEL): > 100 µM (inactive)
GI50 (KM-20L2): > 100 µM (inactive)
GI50 (HT-29): 18.6 µM (inactive)
GI50 (NCI-H460): > 100 µM (inactive)
GI50 (A498): > 100 µM (inactive)
GI50 (EKVX): > 100 µM (inactive)
GI50 (LOX IMVI): 58.6 µM (inactive)

COc1ccc(-c2nnc(-c3nsc4ccccc34)o2)cc1
GI50 (LXFL 529): 54.5 µM (inactive)
GI50 (OVCAR-4): 65.9 µM (inactive)
GI50 (HOP-62): 44.3 µM (inactive)
GI50 (SF-539): 31.2 µM (inactive)
GI50 (NCI-H23): > 100 µM (inactive)
GI50 (DMS-273): 71.4 µM (inactive)
GI50 (U-251): 79.6 µM (inactive)
GI50 (SNB-19): > 100 µM (inactive)
GI50 (SK-MEL-28): > 100 µM (inactive)
GI50 (SNB-78): > 100 µM (inactive)
GI50 (IGROV-1): 58.6 µM (inactive)
GI50 (COLO 205): > 100 µM (inactive)
GI50 (HOP-92): 43.2 µM (inactive)
GI50 (SNB-75): 17.5 µM (inactive)
GI50 (HCT-15): 31.6 µM
GI50 (SR): 31.9 µM (inactive)
GI50 (M14): 80.9 µM (inactive)
GI50 (DMS-114): 58.1 µM (inactive)
GI50 (UACC-62): > 100 µM (inactive)
GI50 (SK-MEL-2): > 100 µM (inactive)
GI50 (HCT-116): 38.4 µM (inactive)
GI50 (HOP-18): 0.571 µM (active)
GI50 (RPMI-8226): 19.3 µM (inactive)
GI50 (SW-620): > 100 µM (inactive)
GI50 (KM12): 49 µM (inactive)
GI50 (ACHN): 33 µM (inactive)
GI50 (SK-MEL-5): 61.9 µM (inactive)
GI50 (SF-268): 65.6 µM (inactive)
GI50 (HCC 2998): 77.4 µM (inactive)
GI50 (A549): 78.5 µM (inactive)
GI50 (SN12C): 59.4 µM (inactive)
GI50 (UACC-257): > 100 µM (inactive)
GI50 (OVCAR-3): 28.3 µM (inactive)
GI50 (UO-31): 25.2 µM (inactive)
GI50 (OVCAR-5): > 100 µM (inactive)
GI50 (TK-10): > 100 µM (inactive)
GI50 (RXF 393): 32.5 µM (inactive)
GI50 (OVCAR-8): 93.5 µM (inactive)
GI50 (M19-MEL): > 100 µM (inactive)
GI50 (KM-20L2): > 100 µM (inactive)
GI50 (HT-29): 67.6 µM (inactive)
GI50 (NCI-H460): 45.4 µM (inactive)
GI50 (EKVX): 38.8 µM (inactive)
GI50 (LOX IMVI): 47.9 µM (inactive)
